Measurements published in article PMC10733463, “Berberine-microbiota interplay: orchestrating gut health through modulation of the gut microbiota and metabolic transformation into bioactive metabolites” (Frontiers in Pharmacology, 2023).

Test system: caecal microbiota cultures
Assay: 16S sequencing of total (DNA) and active (cDNA) community in caecal microbiota cultures, BBR vs Control
Assay type: cell-based, broiler chicken
Details: 48 h; for L2FC BBRRNA vs ControlRNA: active (cDNA) community; for L2FC BBRRNA vs BBRDNA: active vs total community in BBR group; for L2FC BBRDNA vs ControlDNA: total (DNA) community
[1] = OTU 563086 ([Ruminococcus] torques group)
[2] = OTU 574038 (uncultured Lachnospiraceae)
[3] = OTU 579244 (Ruminiclostridium 9)
[4] = OTU 592616 (Erysipelatoclostridium)
[5] = OTU 647215 (uncultured Ruminococcaceae)
[6] = OTU 843454 (Family_Lachnospiraceae)
[7] = OTU 1094991 (Ruminococcaceae UCG-005)
[8] = OTU 2265722 (uncultured Lachnospiraceae)
[9] = OTU 4404181 (uncultured Ruminococcaceae)
[10] = OTU New.CleanUp.ReferenceOTU4902 (Erysipelatoclostridium)
[11] = OTU New.ReferenceOTU85 (Anaerofilum)
[12] = OTU New.ReferenceOTU111 (Lachnospiraceae UCG-010)
[13] = OTU New.ReferenceOTU118 (Erysipelatoclostridium)
[14] = OTU New.ReferenceOTU144 (Erysipelatoclostridium)
[15] = OTU New.ReferenceOTU364 (Streptococcus)
[16] = OTU New.ReferenceOTU377 (uncultured Ruminococcaceae)
[17] = OTU New.ReferenceOTU392 (Intestinimonas)
[18] = OTU New.ReferenceOTU395 (Ruminiclostridium 9)
[19] = OTU New.ReferenceOTU429 (Erysipelatoclostridium)
[20] = OTU New.ReferenceOTU462 (Erysipelatoclostridium)
[21] = OTU New.ReferenceOTU476 (Escherichia-Shigella)
[22] = OTU New.ReferenceOTU486 (Streptococcus)
[23] = OTU New.ReferenceOTU551 (uncultured Ruminococcaceae)

## COc1ccc2cc3[n+](cc2c1OC)CCc1cc2c(cc1-3)OCO2 [Berberine, Berberine chloride]
[1]
  L2FC BBRRNA vs ControlRNA: -0.24
  L2FC BBRRNA vs BBRDNA: -1.93
  L2FC BBRDNA vs ControlDNA: -0.39
OTU 564334 (Oscillibacter)
  L2FC BBRRNA vs ControlRNA: -0.38
  L2FC BBRRNA vs BBRDNA: 2.35
  L2FC BBRDNA vs ControlDNA: -0.21
[2]
  L2FC BBRRNA vs ControlRNA: -1.65
  L2FC BBRRNA vs BBRDNA: -0.24
  L2FC BBRDNA vs ControlDNA: -2.16
[3]
  L2FC BBRRNA vs ControlRNA: -1.11
  L2FC BBRRNA vs BBRDNA: 2.49
  L2FC BBRDNA vs ControlDNA: -1.32
OTU 585227 (Oscillibacter)
  L2FC BBRRNA vs ControlRNA: 0.12
  L2FC BBRRNA vs BBRDNA: 2.44
  L2FC BBRDNA vs ControlDNA: 0.21
[4]
  L2FC BBRRNA vs ControlRNA: 0.37
  L2FC BBRRNA vs BBRDNA: 1.49
  L2FC BBRDNA vs ControlDNA: 0.67
[5]
  L2FC BBRRNA vs ControlRNA: 0.58
  L2FC BBRRNA vs BBRDNA: 2.24
  L2FC BBRDNA vs ControlDNA: 0.49
OTU 813944 (Lactobacillus)
  L2FC BBRRNA vs ControlRNA: 1.85
  L2FC BBRRNA vs BBRDNA: 1.33
  L2FC BBRDNA vs ControlDNA: 1.53
OTU 842786 (Intestinimonas)
  L2FC BBRRNA vs ControlRNA: -0.59
  L2FC BBRRNA vs BBRDNA: 2.24
  L2FC BBRDNA vs ControlDNA: -0.09
[6]
  L2FC BBRRNA vs ControlRNA: 0.55
  L2FC BBRRNA vs BBRDNA: -1.17
  L2FC BBRDNA vs ControlDNA: -0.19
OTU 847728 (Ruminococcus 2)
  L2FC BBRRNA vs ControlRNA: -0.72
  L2FC BBRRNA vs BBRDNA: 1.54
  L2FC BBRDNA vs ControlDNA: -0.88
[7]
  L2FC BBRRNA vs ControlRNA: -1.26
  L2FC BBRRNA vs BBRDNA: 1.01
  L2FC BBRDNA vs ControlDNA: -1.67
OTU 1107057 (Anaerostipes)
  L2FC BBRRNA vs ControlRNA: -0.90
  L2FC BBRRNA vs BBRDNA: -2.55
  L2FC BBRDNA vs ControlDNA: -1.14
OTU 1132942 (Butyricicoccus)
  L2FC BBRRNA vs ControlRNA: 0.64
  L2FC BBRRNA vs BBRDNA: -3.15
  L2FC BBRDNA vs ControlDNA: 0.37
[8]
  L2FC BBRRNA vs ControlRNA: 2.76
  L2FC BBRRNA vs BBRDNA: -0.46
  L2FC BBRDNA vs ControlDNA: 1.22
[9]
  L2FC BBRRNA vs ControlRNA: 0.08
  L2FC BBRRNA vs BBRDNA: -1.72
  L2FC BBRDNA vs ControlDNA: 0.40
[10]
  L2FC BBRRNA vs ControlRNA: -2.19
  L2FC BBRRNA vs BBRDNA: -0.05
  L2FC BBRDNA vs ControlDNA: -1.03
[11]
  L2FC BBRRNA vs ControlRNA: -1.45
  L2FC BBRRNA vs BBRDNA: -0.84
  L2FC BBRDNA vs ControlDNA: -1.62
[12]
  L2FC BBRRNA vs ControlRNA: -1.27
  L2FC BBRRNA vs BBRDNA: -1.92
  L2FC BBRDNA vs ControlDNA: -0.42
[13]
  L2FC BBRRNA vs ControlRNA: -1.90
  L2FC BBRRNA vs BBRDNA: -0.75
  L2FC BBRDNA vs ControlDNA: -0.82
[14]
  L2FC BBRRNA vs ControlRNA: 0.42
  L2FC BBRRNA vs BBRDNA: 1.64
  L2FC BBRDNA vs ControlDNA: 0.55
[15]
  L2FC BBRRNA vs ControlRNA: -0.92
  L2FC BBRRNA vs BBRDNA: -0.91
  L2FC BBRDNA vs ControlDNA: -1.70
[16]
  L2FC BBRRNA vs ControlRNA: -0.22
  L2FC BBRRNA vs BBRDNA: 1.91
  L2FC BBRDNA vs ControlDNA: -0.81
[17]
  L2FC BBRRNA vs ControlRNA: -0.28
  L2FC BBRRNA vs BBRDNA: 1.69
  L2FC BBRDNA vs ControlDNA: -0.31
[18]
  L2FC BBRRNA vs ControlRNA: -1.01
  L2FC BBRRNA vs BBRDNA: 2.37
  L2FC BBRDNA vs ControlDNA: -1.00
[19]
  L2FC BBRRNA vs ControlRNA: 0.23
  L2FC BBRRNA vs BBRDNA: 1.73
  L2FC BBRDNA vs ControlDNA: 0.65
[20]
  L2FC BBRRNA vs ControlRNA: -0.55
  L2FC BBRRNA vs BBRDNA: 1.51
  L2FC BBRDNA vs ControlDNA: -0.78
[21]
  L2FC BBRRNA vs ControlRNA: -0.42
  L2FC BBRRNA vs BBRDNA: 1.67
  L2FC BBRDNA vs ControlDNA: -0.75
[22]
  L2FC BBRRNA vs ControlRNA: -0.10
  L2FC BBRRNA vs BBRDNA: -0.33
  L2FC BBRDNA vs ControlDNA: -2.01
[23]
  L2FC BBRRNA vs ControlRNA: 0.00
  L2FC BBRRNA vs BBRDNA: 2.70
  L2FC BBRDNA vs ControlDNA: 0.58
